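These data come from cells grown in 96-well plates and exposed to compound for 48 hours at five concentrations. GI50 = concentration required for 50% inhibition of growth. TGI: concentration producing complete growth inhibition.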
Experiments:
Test in all cases: NCI-60 cell line screen, 48 h
SF-268 CNS = system: SF-268 CNS
A549 NSCLC = system: A549 NSCLC
HCT-15 colon = system: HCT-15 colon
OVCAR-5 ovarian = system: OVCAR-5 ovarian
OVCAR-3 ovarian = system: OVCAR-3 ovarian
SR leukemia = system: SR leukemia
NCI-H226 lung = system: NCI-H226 lung
HOP-62 NSCLC = system: HOP-62 NSCLC
NCI-H23 lung = system: NCI-H23 lung
LOX IMVI melanoma = system: LOX IMVI melanoma

Compound | GI50 (SF-268 CNS) [µM] | TGI (SF-268 CNS) [µM] | GI50 (A549 NSCLC) [µM] | TGI (A549 NSCLC) [µM] | GI50 (HCT-15 colon) [µM] | TGI (HCT-15 colon) [µM] | GI50 (OVCAR-5 ovarian) [µM] | TGI (OVCAR-5 ovarian) [µM] | GI50 (OVCAR-3 ovarian) [µM] | TGI (OVCAR-3 ovarian) [µM] | GI50 (SR leukemia) [µM] | TGI (SR leukemia) [µM] | GI50 (NCI-H226 lung) [µM] | TGI (NCI-H226 lung) [µM] | GI50 (HOP-62 NSCLC) [µM] | TGI (HOP-62 NSCLC) [µM] | GI50 (NCI-H23 lung) [µM] | TGI (NCI-H23 lung) [µM] | GI50 (LOX IMVI melanoma) [µM] | TGI (LOX IMVI melanoma) [µM]
COc1cc(NS(=O)(=O)c2ccc(-c3cnc(C4CC4)o3)cc2)ccc1F | 2.65 | 30.7 | 0.826 | > 45.8 | 0.198 | 17.1 | 1.15 | 29.5 | 0.437 | 16 | 0.102 | > 100 | 1.24 | 22.1 | 0.646 | 18.8 | 0.989 | 21.4 | 0.534 | 17.9
FC(F)(F)c1nc(-c2ccccc2)oc1Sc1nnc(Sc2oc(-c3ccccc3)nc2C(F)(F)F)s1 | – | > 100 | – | > 100 | – | > 59 | – | > 100 | – | > 57.7 | – | 41 | – | – | – | > 100 | – | 67.3 | – | 24.9
CN1C(=O)c2ccccc2NC(=O)C12O[C@@H]2c1cccc(O)c1 (stereo partly drawn) | – | > 100 | – | > 100 | – | > 100 | – | > 100 | – | > 100 | – | > 100 | – | – | – | > 100 | – | > 100 | – | > 100
COc1cc2c(c(OC)c1OC)-c1c(cc3c(c1OC)OCO3)C1OC2C(C)C1C (stereo not drawn) (tested in a mixture with another compound) | – | > 100 | – | > 100 | – | > 100 | – | > 100 | – | > 100 | – | > 100 | – | > 100 | – | > 100 | – | > 100 | – | > 100
COc1cc2c3c(n(CCNCCCNCCn4c5c(c6cc(OC)c(OC)cc6c4=O)C(=O)c4ccccc4-5)c(=O)c2cc1OC)-c1ccccc1C3=O | 0.0648 | – | 0.187 | 24.2 | 54.2 | > 100 | 0.732 | 7.56 | 0.149 | 1.17 | 0.0191 | 0.702 | 0.3 | 3.04 | 0.0614 | 1.9 | 1.2 | 17 | 0.0293 | 0.413
COC(=O)[C@H](Cc1c[nH]c2ccccc12)NC(=O)[C@@H](OC)[C@@H]1Cc2cc3cc(OC4CC(OC5CC(O)C(O)C(C)O5)C(O)C(C)O4)c(C)c(O)c3c(O)c2C(=O)[C@H]1OC1CC(OC2CC(OC3CC(C)(O)C(O)C(C)O3)C(O)C(C)O2)C(O)C(C)O1 (stereo partly drawn) | 0.00891 | 1.78 | 0.00873 | > 16.5 | 0.441 | > 16.5 | 0.0102 | > 16.5 | 0.00701 | 0.112 | 0.00376 | > 8.99 | 0.0065 | 0.145 | 0.00771 | 5.53 | 0.00614 | 0.0506 | 0.00391 | 0.0111
N#CCc1ccc(C(C#N)/C(CCCC(=O)Nc2cccc([N+](=O)[O-])c2)=N/NC(N)=S)cc1 (stereo not drawn) | – | > 100 | – | > 100 | – | > 100 | – | > 100 | – | > 100 | – | > 100 | – | > 100 | – | > 100 | – | > 100 | – | > 100
c1cc2c(ncc3cscc32)s1 | – | > 100 | – | > 100 | – | > 100 | – | > 100 | – | > 100 | – | > 100 | – | > 100 | – | > 100 | – | > 100 | – | > 100
OC/C=C(\I)CCCOCOCc1ccccc1 | – | > 100 | – | > 100 | – | > 100 | – | > 100 | – | > 100 | – | – | – | > 100 | – | > 100 | – | > 100 | – | 45.9
Cc1ccc2c(c1)CN(C(=O)CCC(=O)OCc1ccccc1)c1ccc(C)cc1CN2C(=O)CCC(=O)OCc1ccccc1 | – | > 100 | – | > 100 | – | > 100 | – | > 100 | – | > 100 | – | > 100 | – | > 100 | – | > 100 | – | > 100 | – | > 100
Cc1ccc(-c2cc(=O)c3cc(C)c(C)c(C(=O)O)c3o2)cc1C | – | – | – | > 100 | – | > 100 | – | > 100 | – | > 100 | – | > 100 | – | > 100 | – | > 100 | – | > 100 | – | > 100
CCOC(=O)c1c(C)nc2c(c1N)/C(=C/c1ccc(OC)cc1)C(=O)N2Cc1ccc(F)cc1 | 0.285 | 1.21 | 0.385 | 2.39 | 0.127 | 0.543 | 0.246 | 0.561 | 0.109 | 0.51 | 0.0816 | 0.726 | 0.261 | 1.03 | 0.497 | 2.17 | 0.262 | 1.03 | 0.164 | 0.34
Cc1[nH]c2ccccc2c1C1Cc2ccccc2N1C(=O)/C(Cl)=C/c1ccccc1 (stereo not drawn) | – | > 100 | – | > 100 | – | > 100 | – | > 100 | – | > 100 | – | > 100 | – | > 100 | – | > 100 | – | > 100 | – | > 100
CC[CH2][Sn]([Cl])([Cl])[CH2]CC.Oc1ccccc1C=NCCN=Cc1ccccc1O | 3.63 | 15.5 | 19.2 | 41 | 9.63 | 24.8 | 12.9 | 26 | 9.29 | 21.4 | 5.45 | > 100 | 3.13 | 12.6 | 12.3 | 25.4 | 6.62 | 20.5 | 14.4 | 28
COc1ccc(-n2cc(-c3cc(OC)c(OC)c(OC)c3)[nH]c2=O)cc1Cl | 40.8 | > 100 | > 100 | > 100 | > 100 | > 100 | > 100 | > 100 | > 100 | > 100 | 55.4 | > 100 | > 100 | > 100 | 51.7 | > 100 | > 100 | > 100 | > 100 | > 100
Fc1ccc(C2SCc3nc4ccccc4n32)cc1Cl (stereo not drawn) | – | > 100 | – | > 100 | – | – | – | 66.6 | – | – | – | > 100 | – | 52 | – | 55.9 | – | 58.1 | – | 40.3
